Experimental data: patent US10947271B2, “Antibacterial agents” (THE UNIVERSITY OF QUEENSLAND, priority 2014, dated 2021)

Columns and labels:
[1] = test system: Streptococcus pneumoniae MDR ATCC 700677; experiment: MIC assay, S. pneumoniae MDR ATCC 700677; assay type: cell-based; conditions: 24 h incubation, visual reading
Outline: (§1)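 Overnight MHB cultures at 37° C were diluted 40-fold and grown 2-3 hrs to mid-log, then added at 5×10e5 CFU/mL to twofold compound dilutions (8 to 0.003 μg/ml). Plates were incubated 24 h at 37° C and MIC scored by eye.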

[2] = test system: Staphylococcus aureus MRSA ATCC 43300; experiment: MIC assay, S. aureus MRSA ATCC 43300; assay type: cell-based; conditions: 24 h incubation, visual reading
Outline: as §1

[3] = test system: Enterococcus faecium MDR Van A ATCC 51559; experiment: MIC assay, E. faecium MDR Van A ATCC 51559; assay type: cell-based; conditions: 24 h incubation, visual reading
Outline: as §1

MRSA (Strain ATCC 43300) = experiment: Murine thigh infection model (MRSA); assay type: in vivo, Staphylococcus aureus; conditions: neutropenic CD1 mice
Experimental: Summary: Adult (8 week old) female CD1 mice were made neutropenic by two injections of cyclophosphamide 4 days and 1 day prior to infection. An inoculum of 10^5 cfu MRSA (Strain ATCC 43300) was injected intramuscularly into both left and right thighs of all mice. […] After an additional two hours, a 50 μL sample of blood was obtained from the tail bleed to analyse for presence of antibiotic compound. […] Thighs were then removed, weighed and homogenised in a fixed volume of saline. The homogenate solution was filtered, diluted and seeded onto agar plates, which were incubated overnight at 37° C. Colony counts were used to establish the cfu in the thigh homogenates, the cfu/thigh, and the cfu/g of thigh.
Compound preparation: Cyclophosphamide monohydrate (Sigma) was dissolved in sterile saline to a concentration of 30 mg/mL. Likewise, vancomycin (Sigma) and MCC compounds were also dissolved in sterile saline to a final concentration of 60 mg/mL and 18.5 mg/mL respectively. All compounds were prepared in low binding Eppendorf tubes and kept at −20° C. until used.
In vivo experimental assay: Eight week old female outbred CD1 mice (UQBR-AIBN) were rendered neutropenic by injecting two doses of cyclophosphamide intraperitoneally 4 days (150 mg/kg) and 1 day (100 mg/kg) prior to experimental infection. The infection model using MRSA was established by intramuscular injection of 50 μL of early-log-phase bacterial MRSA suspension (around 2×10^6 cfu/mL) in saline into both thigh muscles. […] Untreated animals received equivalent volume of saline (Baxter). The mice were monitored for signs of normal behaviour (i.e. grooming, eating, drinking, sleeping, and alertness) during and following dosing. Two hours after saline/antibiotic treatment, 0.05 mL of blood was collected by tail incision. 24 hours after MRSA infection, mice were euthanized and blood collected from the heart by cardiac puncture (saline group) or by tail incision (Vancomycin and MCC compound treated groups) as outlined in FIG. 1. For each mouse, both thighs were collected aseptically by cutting the leg at the hip and knee, placed in 10 mL of cold sterile saline and the individual weight of each thigh recorded.
Preparation of injectable MRSA solution: An MRSA subculture bacterial isolate (ATCC43300) was taken from the storage at −80° C. and freshly seeded on agar plates for overnight (O/N) growth. From the O/N culture preparation, a single colony was diluted into 10-12 mL of Mueller Hinton broth (MHB) and incubated O/N at 37° C. A log-phase subculture was obtained by adding 100 μL of O/N subculture in 10 mL MHB and incubated for a further 2-3 hours. Finally, the OD600 value of the bacterial suspension was determined and the colony forming units per millilitre (cfu/mL) extrapolated. A full dilution of the bacterial cell suspension in saline was achieved by washing (3220×g for 10 min) and the OD600 in saline determined. The suspension was then diluted out accordingly in order to achieve a 2×10^6 cfu/mL solution (10^5 cfu in 50 μL/thigh).
Thus, 10 μL of the injectable MRSA suspension was diluted down to 10-1000 fold, each dilution plated out onto agar plates and incubated at 37° C. for 24 hours.
Thigh homogenates and CFU determination: Thighs were homogenized at 20,000 rpm for 15 seconds using a Polytron MR2500E using a […] probe (all Kinematica).

[4] = single subcutaneous dose 25 mg/kg
[5] = single subcutaneous dose 10 mg/kg

| Compound | Minimum Inhibitory Concentration (MIC) S. pneumoniae ATCC 700677 [1] | Minimum Inhibitory Concentration (MIC) Staph. aureus ATCC43300 [2] | Minimum Inhibitory Concentration (MIC) E. faecium ATCC51559 [3] | Average Reduction log Δcfu MRSA/thigh after 26 h (MRSA (Strain ATCC 43300); [4]) | Average Reduction log Δcfu MRSA/thigh after 26 h (MRSA (Strain ATCC 43300); [5]) |
| --- | --- | --- | --- | --- | --- |
| CCCCCCCCCCC(=O)N[C@@H](CCCCN)C(=O)N[C@@H](CCCCN)C(=O)NCCCNC(=O)[C@H]1NC(=O)[C@H]2NC(=O)[C@H](NC(=O)[C@@H]3NC(=O)[C@H](CC(N)=O)NC(=O)[C@H](NC(=O)[C@@H](CC(C)C)NC)[C@H](O)c4ccc(c(Cl)c4)Oc4cc3cc(c4O[C@@H]3O[C@H](CO)[C@@H](O)[C@H](O)[C@H]3O[C@H]3C[C@](C)(N)[C@H](O)[C@H](C)O3)Oc3ccc(cc3Cl)[C@H]2O)c2ccc(O)c(c2)-c2c(O)cc(O)cc21 [MCC_000344] | xxxx (xxxx = 0.01-<0.1) | xxxx (xxxx = 0.01-<0.1) | xx (xx = 1-4) | xxx (xxx = 4-6) | – |
| CCCCCCCCCCCC(=O)N[C@@H](CCCCN)C(=O)N[C@@H](CCCCN)C(=O)N[C@@H](CCCCNC(=O)[C@H]1NC(=O)[C@H]2NC(=O)[C@H](NC(=O)[C@@H]3NC(=O)[C@H](CC(N)=O)NC(=O)[C@H](NC(=O)[C@@H](CC(C)C)NC)[C@H](O)c4ccc(c(Cl)c4)Oc4cc3cc(c4O[C@@H]3O[C@H](CO)[C@@H](O)[C@H](O)[C@H]3O[C@H]3C[C@](C)(N)[C@H](O)[C@H](C)O3)Oc3ccc(cc3Cl)[C@H]2O)c2ccc(O)c(c2)-c2c(O)cc(O)cc21)C(=O)O [MCC_000347] | xxxx (xxxx = 0.01-<0.1) | xxxxx (xxxxx = <0.01) | xx (xx = 1-4) | – | xxxx (xxxx = >6) |
| CCCCCCCCCCC(=O)NC(CCCCN)C(=O)NC(CCCCN)C(=O)NC(CCCCNC(=O)C1NC(=O)C2NC(=O)C(NC(=O)C3NC(=O)C(CC(N)=O)NC(=O)C(NC(=O)C(CC(C)C)NC)C(O)c4ccc(c(Cl)c4)Oc4cc3cc(c4OC3OC(CO)C(O)C(O)C3OC3CC(C)(N)C(O)C(C)O3)Oc3ccc(cc3Cl)C2O)c2ccc(O)c(c2)-c2c(O)cc(O)cc21)C(N)=O (stereo not drawn) [MCC_000455] | xxxxx (xxxxx = <0.01) | xxxxx (xxxxx = <0.01) | xxx (xxx = 0.1-<1) | xxx (xxx = 4-6) | – |
| CCCCCCCCCC(=O)N[C@@H](CCCCN)C(=O)N[C@@H](CCCCN)C(=O)NCCCNC(=O)[C@H]1NC(=O)[C@H]2NC(=O)[C@H](NC(=O)[C@@H]3NC(=O)[C@H](CC(N)=O)NC(=O)[C@H](NC(=O)[C@@H](CC(C)C)NC)[C@H](O)c4ccc(c(Cl)c4)Oc4cc3cc(c4O[C@@H]3O[C@H](CO)[C@@H](O)[C@H](O)[C@H]3O[C@H]3C[C@](C)(N)[C@H](O)[C@H](C)O3)Oc3ccc(cc3Cl)[C@H]2O)c2ccc(O)c(c2)-c2c(O)cc(O)cc21 [MCC_005084] | xxxx (xxxx = 0.01-<0.1) | xxxx (xxxx = 0.01-<0.1) | xx (xx = 1-4) | – | xxx (xxx = 4-6) |
| CCCCCCCCCC(=O)N[C@@H](CCCCN)C(=O)NCCNC(=O)[C@H]1NC(=O)[C@H]2NC(=O)[C@H](NC(=O)[C@@H]3NC(=O)[C@H](CC(N)=O)NC(=O)[C@H](NC(=O)[C@@H](CC(C)C)NC)[C@H](O)c4ccc(c(Cl)c4)Oc4cc3cc(c4O[C@@H]3O[C@H](CO)[C@@H](O)[C@H](O)[C@H]3O[C@H]3C[C@](C)(N)[C@H](O)[C@H](C)O3)Oc3ccc(cc3Cl)[C@H]2O)c2ccc(O)c(c2)-c2c(O)cc(O)cc21 [MCC_005162] | xxxx (xxxx = 0.01-<0.1) | xxxx (xxxx = 0.01-<0.1) | xx (xx = 1-4) | – | xxx (xxx = 4-6) |
| CCCCCCCCC(=O)N[C@@H](CCCCN)C(=O)N[C@@H](CCCCN)C(=O)NCCNC(=O)[C@H]1NC(=O)[C@H]2NC(=O)[C@H](NC(=O)[C@@H]3NC(=O)[C@H](CC(N)=O)NC(=O)[C@H](NC(=O)[C@@H](CC(C)C)NC)[C@H](O)c4ccc(c(Cl)c4)Oc4cc3cc(c4O[C@@H]3O[C@H](CO)[C@@H](O)[C@H](O)[C@H]3O[C@H]3C[C@](C)(N)[C@H](O)[C@H](C)O3)Oc3ccc(cc3Cl)[C@H]2O)c2ccc(O)c(c2)-c2c(O)cc(O)cc21 [MCC_005165] | xxxx (xxxx = 0.01-<0.1) | xxxx (xxxx = 0.01-<0.1) | x (x = >4) | – | xxx (xxx = 4-6) |
| CCCCCCCCCC(=O)N[C@@H](CCCCN)C(=O)N[C@@H](CCCCN)C(=O)NCCNC(=O)[C@H]1NC(=O)[C@H]2NC(=O)[C@H](NC(=O)[C@@H]3NC(=O)[C@H](CC(N)=O)NC(=O)[C@H](NC(=O)[C@@H](CC(C)C)NC)[C@H](O)c4ccc(c(Cl)c4)Oc4cc3cc(c4O[C@@H]3O[C@H](CO)[C@@H](O)[C@H](O)[C@H]3O[C@H]3C[C@](C)(N)[C@H](O)[C@H](C)O3)Oc3ccc(cc3Cl)[C@H]2O)c2ccc(O)c(c2)-c2c(O)cc(O)cc21 [MCC_005166] | xxxx (xxxx = 0.01-<0.1) | xxxx (xxxx = 0.01-<0.1) | x (x = >4) | – | xxx (xxx = 4-6) |
| CCCCCCCCCC(=O)N[C@@H](CCCCN)C(=O)N[C@@H](CCCCN)C(=O)N[C@@H](CCCCN)C(=O)NCCNC(=O)[C@H]1NC(=O)[C@H]2NC(=O)[C@H](NC(=O)[C@@H]3NC(=O)[C@H](CC(N)=O)NC(=O)[C@H](NC(=O)[C@@H](CC(C)C)NC)[C@H](O)c4ccc(c(Cl)c4)Oc4cc3cc(c4O[C@@H]3O[C@H](CO)[C@@H](O)[C@H](O)[C@H]3O[C@H]3C[C@](C)(N)[C@H](O)[C@H](C)O3)Oc3ccc(cc3Cl)[C@H]2O)c2ccc(O)c(c2)-c2c(O)cc(O)cc21 [MCC_005181] | xxxx (xxxx = 0.01-<0.1) | xxxxx (xxxxx = <0.01) | xx (xx = 1-4) | – | xx (xx = 2-4) |
| CCCCCCCCCC(=O)N[C@@H](CCCCN)C(=O)NCCCNC(=O)[C@H]1NC(=O)[C@H]2NC(=O)[C@H](NC(=O)[C@@H]3NC(=O)[C@H](CC(N)=O)NC(=O)[C@H](NC(=O)[C@@H](CC(C)C)NC)[C@H](O)c4ccc(c(Cl)c4)Oc4cc3cc(c4O[C@@H]3O[C@H](CO)[C@@H](O)[C@H](O)[C@H]3O[C@H]3C[C@](C)(N)[C@H](O)[C@H](C)O3)Oc3ccc(cc3Cl)[C@H]2O)c2ccc(O)c(c2)-c2c(O)cc(O)cc21 [MCC_005200] | xxxx (xxxx = 0.01-<0.1) | xxxx (xxxx = 0.01-<0.1) | xx (xx = 1-4) | – | xx (xx = 2-4) |
